{"source": "paper PMC9594040", "about": "“Structure-Based Discovery of Negative Allosteric Modulators of the Metabotropic Glutamate Receptor 5” (ACS Chemical Biology, 2022)"}
{"target": "human mGlu5 (Homo sapiens, UniProt P41594)", "sequence (P41594 21-1212)": "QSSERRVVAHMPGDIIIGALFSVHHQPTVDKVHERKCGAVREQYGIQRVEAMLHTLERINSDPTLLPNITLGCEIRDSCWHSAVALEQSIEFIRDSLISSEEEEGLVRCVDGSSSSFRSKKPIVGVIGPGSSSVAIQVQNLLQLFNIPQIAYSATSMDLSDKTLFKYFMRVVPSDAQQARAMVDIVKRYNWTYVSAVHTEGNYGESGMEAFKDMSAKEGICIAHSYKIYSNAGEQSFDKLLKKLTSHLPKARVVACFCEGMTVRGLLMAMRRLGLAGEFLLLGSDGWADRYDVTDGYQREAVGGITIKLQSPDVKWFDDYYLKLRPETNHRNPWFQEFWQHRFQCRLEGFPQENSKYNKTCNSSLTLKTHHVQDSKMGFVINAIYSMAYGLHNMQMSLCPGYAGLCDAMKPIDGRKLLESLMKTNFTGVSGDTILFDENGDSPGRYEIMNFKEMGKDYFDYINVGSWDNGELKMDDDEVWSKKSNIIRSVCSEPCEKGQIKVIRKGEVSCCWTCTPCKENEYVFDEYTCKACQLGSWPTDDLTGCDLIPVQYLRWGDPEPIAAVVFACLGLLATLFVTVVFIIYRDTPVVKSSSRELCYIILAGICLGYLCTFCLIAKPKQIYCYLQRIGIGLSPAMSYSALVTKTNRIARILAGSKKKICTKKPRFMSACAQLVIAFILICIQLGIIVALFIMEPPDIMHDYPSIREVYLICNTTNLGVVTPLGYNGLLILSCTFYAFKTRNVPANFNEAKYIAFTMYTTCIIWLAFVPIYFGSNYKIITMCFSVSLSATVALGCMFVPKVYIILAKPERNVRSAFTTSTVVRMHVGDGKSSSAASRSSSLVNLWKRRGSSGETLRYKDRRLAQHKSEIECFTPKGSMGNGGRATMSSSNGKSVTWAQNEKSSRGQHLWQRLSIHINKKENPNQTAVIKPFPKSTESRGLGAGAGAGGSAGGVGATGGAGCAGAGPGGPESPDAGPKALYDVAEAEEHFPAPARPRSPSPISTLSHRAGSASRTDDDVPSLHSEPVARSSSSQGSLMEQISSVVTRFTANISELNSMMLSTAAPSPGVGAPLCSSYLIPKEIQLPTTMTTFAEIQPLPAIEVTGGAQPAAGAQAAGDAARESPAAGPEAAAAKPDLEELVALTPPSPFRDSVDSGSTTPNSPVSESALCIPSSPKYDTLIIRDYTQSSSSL", "experiment": "Radioligand displacement assay (radiolabeled MPEP) on membranes of HEK293 cells stably expressing mGlu5", "details": "Ki, radioligand displacement; mean ± SEM of two experiments", "units": {"Ki": "µM"}, "method": "Treated cells were harvested with PBS/2 mM EDTA and washed three times with ice-cold PBS and frozen at −80 °C. The frozen cell pellet was resuspended in membrane buffer (25 mM Tris/7.4, 250 mM sucrose, 2.5 mM EDTA, 2 ug/ml aprotinin, 0.5 ug/ml leupeptin and 200 nM PMSF) and homogenized with a polytron 20–30 s at maximum power. After centrifugation at 18,000 RPM for 30 min at 4 °C, the pellet was resuspended in ice-cold membrane buffer, hand-homogenized, and centrifuged as described above. This pellet was further resuspended in ice-cold membrane buffer. The protein content was measured using the Bradford method with bovine serum albumin as the standard. The membrane homogenate was frozen at −80 °C before use. After thawing, the membranes were washed once and resuspended in ice-cold 50 mM Tris–HCl, 0.9% NaCl, pH 7.4 buffer. All incubations were performed at room temperature. For the displacement binding experiments, 15 μg of membranes were incubated with 5 nM the radioligand in the presence of 10 varying concentrations of the test compound for 2 h at room temperature with shaking. At the end of the respective incubations, the suspension was filtered onto PerkinElmer GF/C glass fiber filters (1450–421) pre-soaked in 0.5% polyethyleneimine and washed rapidly four times using a Tomtec Harvester 96 Mach III cell harvester (Tomtec, Hamden, CT) with 5 mL of cold wash buffer (50 mM Tris–HCl, pH 7.4). The radioactivity trapped on the filters was measured after heat sealing the filters with MeltiLexTM A (PerkinElmer, 1450–441) in a 1450 MicroBeta TriLux counter (PerkinElmer). […] IC50 values were derived from the inhibition curve, and Ki values were calculated according to the Cheng-Prusoff equation of Ki = IC50/(1 + [L]/Kd),[61] where [L] is the concentration of radioligand and Kd is its dissociation constant at the receptor, derived from the saturation isotherm."}
{"smiles": "N#Cc1ccc(NCC#Cc2ccccc2)cc1", "note": "[F3]", "Ki": "3.4 ± 0.2"}
{"smiles": "N#Cc1cccc(COc2ccccc2F)c1", "note": "[F4]", "Ki": "8.6 ± 0.1"}
{"smiles": "COc1ccc(Cn2cccc2-c2nc(-c3ccncc3)no2)cc1", "note": "[L3]", "Ki": "3.6 ± 0.1"}
{"smiles": "CN(Cc1cnn(-c2ccccc2)c1)c1noc(-c2ccccc2)n1", "note": "[L4]", "Ki": "4 ± 0.5"}
{"smiles": "CC(c1nc(-c2ccco2)no1)n1nnc(-c2cccc(F)c2)n1", "note": "(stereo not drawn) [L5]", "Ki": "4.3 ± 0.9"}
{"smiles": "Cc1nc(-c2ccccc2)sc1C(C)N(C)C(=O)c1cnns1", "note": "(stereo not drawn) [L6]", "Ki": "7.3 ± 1.3"}
{"smiles": "CN(Cc1cnn(-c2ccc(F)cc2)c1)c1nc(-c2ccccc2)no1", "note": "[L7]", "Ki": "7.9 ± 0.6"}
{"target": "human mGlu5 (Homo sapiens, UniProt P41594)", "experiment": "Radioligand displacement assay (radiolabeled MPEP) on membranes of HEK293 cells stably expressing mGlu5", "details": "Table S1; radioligand displacement at 30 µM; mean ± SEM of two experiments", "units": {"Inhibition at 30 µM": "%"}}
{"smiles": "Cc1cccc(NC(=O)Cc2ccc(O)cc2)c1", "note": "[F5]", "Inhibition at 30 µM": "42 ± 5"}
{"smiles": "CCOc1cccc(CNC(=O)C2CC=CC2)c1", "note": "[F7]", "Inhibition at 30 µM": "39 ± 7"}
{"smiles": "CC(=O)c1cccc(NCc2ccccc2)c1", "note": "[F9]", "Inhibition at 30 µM": "38 ± 1"}
{"smiles": "Cc1ccc(C(C)NC(=O)c2ccc(F)cc2)o1", "note": "(stereo not drawn) [F10]", "Inhibition at 30 µM": "35 ± 8"}
{"smiles": "N#Cc1ccc(OC/C=C/c2ccccc2)nc1", "note": "[F11]", "Inhibition at 30 µM": "35 ± 6"}
{"smiles": "COCc1cccc(Nc2cc(Cl)ncn2)c1", "note": "[F12]", "Inhibition at 30 µM": "35 ± 10"}
{"smiles": "C=CCNC(=O)c1ccc(Oc2ccccc2)o1", "note": "[F13]", "Inhibition at 30 µM": "35 ± 10"}
{"smiles": "Cc1cc(CN(C)C(=O)Nc2ccccc2)on1", "note": "[F14]", "Inhibition at 30 µM": "33 ± 4"}
{"smiles": "CC1CC1C(=O)N(C)CCOc1ccccc1", "note": "(stereo not drawn) [F15]", "Inhibition at 30 µM": "33 ± 9"}
{"smiles": "CC(C)c1nccn1Cc1nc2ccccc2[nH]1", "note": "[F16]", "Inhibition at 30 µM": "33 ± 5"}
{"smiles": "c1ccc(-n2cc(CCn3cnnc3)cn2)cc1", "note": "[F17]", "Inhibition at 30 µM": "33 ± 3"}
{"smiles": "Cc1ccccc1CNc1ccc(F)c(C#N)c1", "note": "[F18]", "Inhibition at 30 µM": "33 ± 9"}
{"smiles": "COCc1cccc(Nc2ccnc(C#N)c2)c1", "note": "[F19]", "Inhibition at 30 µM": "32 ± 4"}
{"smiles": "Cn1ccnc1SCC=Cc1ccccc1", "note": "[F20]", "Inhibition at 30 µM": "31 ± 1"}
{"smiles": "CC(c1nc(-c2ccccc2)no1)n1ccnc1", "note": "(stereo not drawn) [F21]", "Inhibition at 30 µM": "31 ± 1"}
{"smiles": "CN(Cc1cn2ccccc2n1)c1ccccc1", "note": "[F22]", "Inhibition at 30 µM": "31 ± 1"}
{"smiles": "Cc1ccoc1-c1nc(Cc2ccccc2)n[nH]1", "note": "[F23]", "Inhibition at 30 µM": "30 ± 7"}
{"smiles": "CCn1cnnc1CNC(=O)c1cccc(C)c1", "note": "[F24]", "Inhibition at 30 µM": "30 ± 1"}
{"smiles": "COc1ccc(CNC(=O)c2csnn2)cc1", "note": "[F25]", "Inhibition at 30 µM": "28 ± 9"}
{"smiles": "OCc1cccc(NCc2cccc(Cl)c2)c1", "note": "[F26]", "Inhibition at 30 µM": "28 ± 15"}
{"smiles": "CC(O)c1cccc(OCc2ccccc2)c1", "note": "(stereo not drawn) [F27]", "Inhibition at 30 µM": "27 ± 3"}
{"smiles": "Oc1ccccc1-c1n[nH]c(-c2ccncc2)n1", "note": "[F28]", "Inhibition at 30 µM": "27 ± 3"}
{"smiles": "CCN(CC(O)c1ccccc1)c1ccccc1", "note": "(stereo not drawn) [F29]", "Inhibition at 30 µM": "27 ± 1"}
{"smiles": "N#Cc1ccnc(Nc2ccc3c(c2)OCO3)c1", "note": "[F30]", "Inhibition at 30 µM": "27 ± 3"}
{"smiles": "CN(C)C(=O)c1cc(OCc2ccccc2)no1", "note": "[F32]", "Inhibition at 30 µM": "27 ± 1"}
{"smiles": "Cc1ccccc1NC(=O)c1ccnc(Cl)c1", "note": "[F33]", "Inhibition at 30 µM": "26 ± 11"}
{"smiles": "O=C(Nc1ccccc1F)OCc1cccnc1", "note": "[F34]", "Inhibition at 30 µM": "26 ± 4"}
{"smiles": "OC(c1ccccc1)c1nc2cc(F)ccc2[nH]1", "note": "(stereo not drawn) [F35]", "Inhibition at 30 µM": "25 ± 12"}
{"smiles": "O=C(NCc1ccncc1)c1cccc(Cl)c1", "note": "[F36]", "Inhibition at 30 µM": "25 ± 3"}
{"smiles": "O=C(CNC(=O)c1ccco1)Nc1ccccc1", "note": "[F37]", "Inhibition at 30 µM": "25 ± 4"}
{"smiles": "c1ccc(Cn2nnc(-c3ccncc3)n2)cc1", "note": "[F38]", "Inhibition at 30 µM": "25 ± 3"}
{"smiles": "Cc1cccc(C(=O)NC(C)c2ccncc2)n1", "note": "(stereo not drawn) [F39]", "Inhibition at 30 µM": "24 ± 9"}
{"smiles": "CC[C@H](Nc1cnn(CC)c1)c1ccc(C)cc1", "note": "[F40]", "Inhibition at 30 µM": "24 ± 7"}
{"smiles": "Clc1ncnc2cc(-c3ccccc3)[nH]c12", "note": "[F41]", "Inhibition at 30 µM": "24 ± 2"}
{"smiles": "COc1ccc(CNC(=O)c2ccncc2)cc1", "note": "[F42]", "Inhibition at 30 µM": "24 ± 8"}
{"smiles": "c1ccc(-c2nsc(-n3ccnc3)n2)cc1", "note": "[F43]", "Inhibition at 30 µM": "23 ± 2"}
{"smiles": "C#Cc1cccc(NC(C)c2ccccc2)c1", "note": "(stereo not drawn) [F44]", "Inhibition at 30 µM": "23 ± 4"}
{"smiles": "CC(C)C(=O)N(C)Cc1nc2ccccc2[nH]1", "note": "[F45]", "Inhibition at 30 µM": "22 ± 9"}
{"smiles": "CC[C@@H]1CCCC(C(=O)Nc2ccccc2)=C1O", "note": "[F46]", "Inhibition at 30 µM": "22 ± 1"}
{"smiles": "CC(O)c1ccc(OCc2ccc(F)cc2)cc1", "note": "(stereo not drawn) [F47]", "Inhibition at 30 µM": "21 ± 3"}
{"smiles": "CN(CCc1ccccn1)c1ccc(Cl)nn1", "note": "[F48]", "Inhibition at 30 µM": "21 ± 1"}
{"smiles": "C=CCN1CC(c2nc3ccccc3[nH]2)CC1=O", "note": "(stereo not drawn) [F49]", "Inhibition at 30 µM": "20 ± 1"}
{"smiles": "CC(=O)c1nc(Nc2ccccc2)sc1C", "note": "[F50]", "Inhibition at 30 µM": "20 ± 9"}
{"smiles": "Nc1ccccc1Sc1nc2ccccc2[nH]1", "note": "[F51]", "Inhibition at 30 µM": "20 ± 14"}
{"smiles": "CCC(NC(=O)c1ccccn1)c1ccccc1", "note": "(stereo not drawn) [F52]", "Inhibition at 30 µM": "19 ± 5"}
{"smiles": "Cc1cc(Cn2ccc(-c3ccccc3)n2)on1", "note": "[F53]", "Inhibition at 30 µM": "19 ± 2"}
{"smiles": "Fc1ccc(F)c(NCCCn2ccnc2)c1", "note": "[F55]", "Inhibition at 30 µM": "19 ± 5"}
{"smiles": "Clc1cccc(OCCCn2ccnc2)c1", "note": "[F56]", "Inhibition at 30 µM": "18 ± 4"}
{"smiles": "COCc1ccc(CNc2ncccc2F)cc1", "note": "[F57]", "Inhibition at 30 µM": "17 ± 3"}
{"smiles": "Cc1cccn2cc(Cn3ccccc3=O)nc12", "note": "[F58]", "Inhibition at 30 µM": "16 ± 5"}
{"smiles": "Nc1ccccc1-c1nc2cc(F)c(F)cc2[nH]1", "note": "[F59]", "Inhibition at 30 µM": "9 ± 1"}
{"smiles": "N#Cc1cc(CNc2ccn(-c3ncccc3Cl)n2)ccc1F", "note": "[L10]", "Inhibition at 30 µM": "41 ± 7"}
{"smiles": "O=C(NCc1ccc(N2CCCC2)nc1)c1cnn(-c2ccccc2)c1", "note": "[L11]", "Inhibition at 30 µM": "40 ± 4"}
{"smiles": "O=C(NCc1ccc(-n2cccn2)cc1)c1cc2ccccc2s1", "note": "[L12]", "Inhibition at 30 µM": "39 ± 6"}
{"smiles": "CC1CN(C(=O)Nc2cccc(C#N)c2)CC(c2ccccc2)O1", "note": "(stereo not drawn) [L14]", "Inhibition at 30 µM": "38 ± 12"}
{"smiles": "Cc1noc(CCC(=O)N2CCC(CSc3ccccc3)C2)n1", "note": "(stereo not drawn) [L15]", "Inhibition at 30 µM": "37 ± 6"}
{"smiles": "O=C(Nc1cccc(OCc2ccccn2)c1)c1cccc(F)c1", "note": "[L16]", "Inhibition at 30 µM": "36 ± 1"}
{"smiles": "CSc1ccc(C(=O)N(C)Cc2nc3ccccc3[nH]2)o1", "note": "[L17]", "Inhibition at 30 µM": "35 ± 3"}
{"smiles": "O=C(NCc1cc(-c2ccco2)on1)c1cccc(Cl)c1", "note": "[L18]", "Inhibition at 30 µM": "34 ± 1"}
{"smiles": "O=C(NCc1ccccc1)c1csc(COc2ccc(F)cc2)n1", "note": "[L19]", "Inhibition at 30 µM": "34 ± 3"}
{"smiles": "CN(Cc1cnn(-c2ccccc2)c1)C(=O)c1cc(-c2ccco2)on1", "note": "[L20]", "Inhibition at 30 µM": "34 ± 5"}
{"smiles": "O=C(CSc1n[nH]c(-c2cccnc2)n1)Nc1cccc(Cl)c1", "note": "[L21]", "Inhibition at 30 µM": "33 ± 12"}
{"smiles": "O=C(Nc1cccc(F)c1)C1CCN(c2ccc(F)cc2)C1=O", "note": "(stereo not drawn) [L23]", "Inhibition at 30 µM": "32 ± 1"}
{"smiles": "O=C(CCc1cccnc1)N1CCCC(COc2cccc(F)c2)C1", "note": "(stereo not drawn) [L24]", "Inhibition at 30 µM": "32 ± 3"}
{"smiles": "Cc1ccc(C2CC2c2nc(CNC(=O)c3ccccc3)no2)s1", "note": "(stereo not drawn) [L26]", "Inhibition at 30 µM": "31 ± 7"}
{"smiles": "O=C(NCc1cccnc1)c1ccc(COc2ccccc2)o1", "note": "[L27]", "Inhibition at 30 µM": "31 ± 7"}
{"smiles": "O=C(NCc1ccnc(-n2cccn2)c1)c1ccc(Br)o1", "note": "[L29]", "Inhibition at 30 µM": "30 ± 9"}
{"smiles": "Cc1ccc(Cn2ccnc2C(=O)Nc2ccccc2)cc1", "note": "[L30]", "Inhibition at 30 µM": "30 ± 5"}
{"smiles": "Cc1ccc(Cn2cccc2-c2nc(-c3ccncc3)no2)cc1", "note": "[L31]", "Inhibition at 30 µM": "29 ± 4"}
{"smiles": "O=C(CCc1ccncc1)N1CC(n2cc(-c3ccccc3)nn2)C1", "note": "[L32]", "Inhibition at 30 µM": "29 ± 3"}
{"smiles": "CCCn1cc(C(=O)Nc2cccc(NC(=O)c3ccncc3)c2)cn1", "note": "[L34]", "Inhibition at 30 µM": "29 ± 1"}
{"smiles": "c1ccc(Cc2n[nH]c(-c3ccncc3)n2)cc1", "note": "[L36]", "Inhibition at 30 µM": "29 ± 8"}
{"target": "human mGlu5 (Homo sapiens, UniProt P41594)", "experiment": "Radioligand displacement assay (radiolabeled MPEP) on membranes of HEK293 cells stably expressing mGlu5", "details": "Table S1; radioligand displacement; mean ± SEM of two experiments", "units": {"Ki": "µM"}}
{"smiles": "CC(CCOc1ccccc1)c1nc(-c2ccc(C#N)cn2)no1", "note": "(stereo not drawn) [L8]", "Ki": "11 ± 1"}
{"target": "human mGlu5 (Homo sapiens, UniProt P41594)", "experiment": "Radioligand displacement assay (radiolabeled MPEP) on membranes of HEK293 cells stably expressing mGlu5", "details": "radioligand displacement; mean ± SEM of two experiments", "units": {"Ki": "µM"}}
{"smiles": "O=C(Nc1cccc(Cn2ccnc2)c1)c1cccc(F)c1", "note": "[L9]", "Ki": 16}
